# From patent US8486900B2, “Method for preparing a Centella asiatica extract rich in madecassoside and in terminoloside” (Bayer Consumer Care AG, priority 2002, dated 2013)
# Columns and labels:
# [1] = test system: PGE-2; assay: PMA-induced release of PGE-2 by human keratinocytes; assay type: cell-based; conditions: for PGE-2 (extracellular): Example 12, K02-1H6, PMA 10 ng/ml, 48 h + 24 h
# Procedure: The principle of the assay is based on evaluating the production of pro-inflammatory cytokines by human keratinocytes in response to an irritative stress. […]
# Given the lack of effect of IFN-γ on the production and release of PGE-2, the anti-inflammatory effect of the active agents was studied on normal human keratinocytes (strain K02-1H6) stimulated with PMA. Each active agent was tested at 4 concentrations:
# 1. Treatment of the cells, for 48 h, with the product being studied before induction of the irritative stress.
# 2. Induction of the irritative stress: PMA (10 ng/ml).
# 3. Incubation of the “activated” cells, for 24 h, in the presence of the product being studied.
# 4. Assay of PGE-2 (extracellular) and assay of cellular proteins.
# Tables 37 to 39 below group together the amounts of PGE-2 (pg/μg prot.) obtained after activation of the cells (+PMA), and also the basal amounts (−PMA). The PMA-induced production of PGE-2 and the anti-inflammatory activity (AIA) were calculated, for each concentration, according to: PGE-2 production=[(PGE-2(+PMA)−PGE-2(−PMA)] AIA=[(PGE-2 production(control cells)−PGE-2 production(treated cells))/PGE-2 production(control cells)]×100
# [2] = test system: IL-8; assay: IFN-γ-induced release of IL-8 by normal human keratinocytes; assay type: cell-based; conditions: for IL-8: Example 12, K02-1H6, IFN-γ 1000 U/ml, 48 h + 24 h
# Procedure: In order to evaluate the anti-inflammatory activity of terminoloside, of madecassoside and of the mixture of heterosides, we studied the modulatory effects of these three active agents with respect to the production and release of proinflammatory epidermal cytokines (IL-1α, IL-8, PGE-2) by human keratinocytes in culture, subjected to an irritative stress induced either with interferon-gamma (IFN-γ) or with PMA. Human keratinocytes were isolated from human skin. The cells were cultured in serum-free KGM medium (Keratinocyte Growth Medium, sold by the company Clonetics®), according to the usual techniques set up in the laboratory, at 37° C. in a humid air-CO2 (95%-5%) atmosphere. The cells were seeded into 25 cm^2 flasks and passaged regularly before reaching confluency. The principle of the assay is based on evaluating the production of proinflammatory cytokines by human keratinocytes, in response to an irritative stress. The method is based on measuring the intracellular amount of IL-1α and of the amounts of IL-8 and of PGE-2 released into the extracellular medium by keratinocytes cultured in the absence and in the presence of the products being studied, and stimulated even with interferon-gamma (IFN-γ) or with PMA (phorbol-12-myristate-13-acetate).
# The study was carried out on keratinocytes isolated from foreskin of young children (strain K02-1H6).
# 1. Treatment of the cells for 48 h with the product being studied before induction of the irritative stress; 2. induction of the irritative stress: IFN-γ (1000 U/ml); 3. incubation of the “activated” cells, for 24 h, in the presence of the product being studied; 4. assay: IL-8 (extracellular) and IL-1α (intracellular). Cellular protein assay.
# Tables 32 to 34 below group together the amounts of IL-8 obtained after activation of the cells (+IFN-γ), and also the basal amounts (−IFN-γ). The IFN-γ-induced production of IL-8 and the anti-inflammatory activity (AIA) were calculated, for each concentration of active agent, according to: AIA=[(IL-8(control cells+IFN)−[…]/IL-8(control cells+IFN)]×100
# [3] = Solubility
# [4] = test system: HaCaT human keratinocytes; assay: Cytotoxicity, Neutral Red colorimetric assay on HaCaT human keratinocytes; assay type: cell-based; conditions: for Viability (24 h), % of control / Viability (72 h), % of control: Example 12, HaCaT
# Procedure: The cytotoxicity was studied on HaCaT human keratinocytes seeded into 96-well plates at a rate of 20×10^3, broad range, and 10×10^3, limited range, cells per well. The cell viability is evaluated by means of a colorimetric assay with Neutral Red. Neutral Red is a weakly cationic dye that penetrates cell membranes by means of a nonionic diffusion phenomenon and binds intracellularly to the phosphate and/or carboxylic groups of the lysosomal matrix. Modifications in the accumulation and retention of Neutral Red are observed when the cell membranes are damaged. The optical density of the solution obtained after incubation of the cells in the presence of Neutral Red is therefore proportional to the number of living cells.
# A broad range of 9 concentrations, from 0.001 to 1 mg/ml, was initially tested. The various test solutions were prepared in DMEM medium, […], supplemented with 10 vol % of FCS, fetal calf serum. […] The cell viability was evaluated by means of a Neutral Red colorimetric assay, after 72 hours of incubation. […] From 1 mg/ml, a slight dose-dependent cytotoxic effect is observed. […]
# A second limited range of between 0.075 and 5 mg/ml was tested. […] The cell viability was evaluated by means of a Neutral Red colorimetric assay, after 72 hours of incubation. The results obtained were similar to those recorded in the absence of DMSO.
structure (smiles),measurement,setting,value
"CC1OC(O[C@@H]2C(CO)OC(OCC3OC(OC(=O)C4CC(C)(C)CC5C6=CCC7C(CC(O)C8C(C)(CO)C(O)C(O)CC78C)C6(C)CCC45)[C@@H](O)C(O)[C@@H]3O)[C@@H](O)C2O)[C@@H](O)C(O)[C@H]1O (stereo partly drawn) [Terminoloside, 1-[O-α-L-rhamnopyranosyl-(1-4)-O-β-glucopyranosol-(1-6)]-O-β-D-glucopyranose 2α,3β,6β,23-tetrahydroxyolea-12-en-28-oate]",PGE-2 production (+PMA minus −PMA),"[1]; Example 12, 0.1 mg/ml",494.2
same,PGE-2 production (+PMA minus −PMA),"[1]; Example 12, 0.25 mg/ml",441.0
same,PGE-2 production (+PMA minus −PMA),"[1]; Example 12, 0.5 mg/ml",279.9
same,PGE-2 production (+PMA minus −PMA),"[1]; Example 12, 1 mg/ml",115.2
same,PGE-2 (extracellular),[1]; 0.1 mg/ml,660.0 pg/μg prot
same,PGE-2 (extracellular),[1]; 0.25 mg/ml,606.80 pg/μg prot
same,PGE-2 (extracellular),[1]; 0.5 mg/ml,445.7 pg/μg prot
same,PGE-2 (extracellular),[1]; 1 mg/ml,321.0 pg/μg prot
same,"Anti-inflammatory activity (%), PGE-2","[1]; Example 12, PMA 10 ng/ml, 1 mg/ml",68.6%
same,inhibition at 100 µg/mL,"[1]; Homo sapiens, Keratinocyte, Example 12, PMA 10 ng/ml, 0.1 mg/ml, read-out: Anti-inflammatory activity (%), PGE-2",0%
same,inhibition at 250 µg/mL,"[1]; Homo sapiens, Keratinocyte, Example 12, PMA 10 ng/ml, 0.25 mg/ml, read-out: Anti-inflammatory activity (%), PGE-2",10.8%
same,inhibition at 500 µg/mL,"[1]; Homo sapiens, Keratinocyte, Example 12, PMA 10 ng/ml, 0.5 mg/ml, read-out: Anti-inflammatory activity (%), PGE-2",43.4%
same,inhibition at 1000 µg/mL,"[1]; Homo sapiens, Keratinocyte, Example 12, PMA 10 ng/ml, 1 mg/ml, read-out: Anti-inflammatory activity (%), PGE-2",69%
same,IL-8,[2]; 0.1 mg/ml,0.862 pg/μg prot
same,IL-8,[2]; 0.25 mg/ml,0.762 pg/μg prot
same,IL-8,[2]; 0.5 mg/ml,0.708 pg/μg prot
same,IL-8,[2]; 1 mg/ml,0.492 pg/μg prot
same,inhibition at 100 µg/mL,"[2]; Homo sapiens, Keratinocyte, Example 12, IFN-γ 1000 U/ml, 0.1 mg/ml, read-out: Anti-inflammatory activity (%), IL-8",0%
same,inhibition at 250 µg/mL,"[2]; Homo sapiens, Keratinocyte, Example 12, IFN-γ 1000 U/ml, 0.25 mg/ml, read-out: Anti-inflammatory activity (%), IL-8",9%
same,inhibition at 500 µg/mL,"[2]; Homo sapiens, Keratinocyte, Example 12, IFN-γ 1000 U/ml, 0.5 mg/ml, read-out: Anti-inflammatory activity (%), IL-8",15%
same,inhibition at 1000 µg/mL,"[2]; Homo sapiens, Keratinocyte, Example 12, IFN-γ 1000 U/ml, 1 mg/ml, read-out: Anti-inflammatory activity (%), IL-8",42%
same,solubility,[3],water-soluble
same,"Viability (24 h), % of control",[4]; 0.05 mg/ml,105%
same,"Viability (24 h), % of control",[4]; 0.1 mg/ml,104%
same,"Viability (24 h), % of control",[4]; 0.25 mg/ml,105%
same,"Viability (24 h), % of control",[4]; 0.5 mg/ml,105%
same,"Viability (24 h), % of control",[4]; 1 mg/ml,104%
same,"Viability (24 h), % of control",[4]; 2.5 mg/ml,100%
same,"Viability (24 h), % of control",[4]; 5 mg/ml,81%
same,"Viability (24 h), % of control",[4]; 10 mg/ml,73%
same,"Viability (72 h), % of control",[4]; 0.1 mg/ml,100%
same,"Viability (72 h), % of control",[4]; 0.25 mg/ml,101%
same,"Viability (72 h), % of control",[4]; 0.5 mg/ml,101%
same,"Viability (72 h), % of control",[4]; 0.75 mg/ml,103%
same,"Viability (72 h), % of control",[4]; 1 mg/ml,102%
same,"Viability (72 h), % of control",[4]; 2.5 mg/ml,103%
same,"Viability (72 h), % of control",[4]; 5 mg/ml,93%
same,"Viability (72 h), % of control",[4]; 7.5 mg/ml,86%
same,"Viability (72 h), % of control",[4]; 10 mg/ml,69%
same,concentrations inducing no significant modification of the cell response to Neutral Red,"[4]; HaCaT, 24 h of contact",2500 µg/mL
